Measurements as given in patent US20110146678A1, “PROCESS FOR IMPROVING CRYSTALLINITY” (priority 2008, published 2011).

What was measured:
Assay type in all cases: physicochemical
[1] = Aerosolisation efficiency of binary DPI formulations (0.4% w/w FP in lactose), NGI via Rotahaler; settings: binary DPI, Rotahaler 60 Lpm
Experimental: The aerosolization efficiency of samples 2, 3 and 4 of engineered FP were evaluated using binary formulations containing 0.4% w/w FP.
Each binary formulation contained 0.016 g FP and 3.984 g lactose (ML001, DMV-Fonterra, Vehgel, Netherlands) and was prepared by geometric mixing. Following this, the blend was subsequently prepared using a Turbula T2F (Willy A Bachofen A G, Basel, Switzerland) at 46 rpm for 45 minutes.
Following content uniformity testing, 12.5±1 mg of each blend was loaded into size 3 hydroxypropylmethyl cellulose capsules (HPMC, Shionogi Qualicaps S A, Basingstoke, UK). The capsules were stored at 44% RH for 24 h prior to in vitro performance testing.
(§1) Testing was performed using a Next Generation Impactor (NGI) with pre-separator, which was connected to a vacuum pump (GE Motors). Prior to testing, the pre-separator was filled with 15 ml of mobile phase and the cups of the NGI cups were coated with 1% v/v silicone oil in hexane to eliminate particle bounce.
For each experiment, four individual capsules of the same formulation were discharged into the NGI at 60 Lpm for 4 s via a Rotahaler (GSK, Ware, UK) DPI device. Additionally, blisters from a Flixotide Diskus (GSK, Ware, UK) were emptied and loaded into size 3 HPMS capsules and discharged into a NGI at 60 Lpm1 for 4 s via a Rotahaler. Following aerosolization, the NGI apparatus was dismantled and the inhaler, capsules and each part of the NGI was washed down into known volumes of HPLC mobile phase.
The mass of drug deposited on each part of the NGI was determined by HPLC. This protocol was repeated three times for each blend, following which, the mass median aerodynamic diameter (MMAD), geometric standard deviation (GSD), fine particle dose (FPD) and fine particle fraction of the emitted dose (FPFED) were determined. The FPD represented the mass of drug that was collected on stages 3-8 of the NGI.

[2] = Aerosolisation efficiency of 500/25 FP/SX combination DPI formulation, NGI via Cyclohaler; settings: 500/25 formulation
Experimental: Following content uniformity testing, […] of the blend containing the FP sample 3 blend or Advair was loaded into size 3 hydroxypropylmethyl cellulose capsules (HPMC, Shionogi Qualicaps S A, Basingstoke, UK). The capsules were stored at 44% RH for 24 h prior to in vitro performance testing.
as §1
For each experiment, two individual capsules of the same formulation were discharged into the NGI at 90 Lpm for 2.8 s via a Cyclohaler (TEVA Pharmaceuticals, Netherlands) to ensure both devices were operated such that 4 kPa pressure drop was generated.
Following aerosolization, the NGI apparatus was dismantled and the inhaler, capsules and each part of the NGI was washed down into known volumes of HPLC mobile phase. The mass of drug deposited on each part of the NGI was determined by HPLC. This protocol was repeated three times for each blend, following which, the fine particle dose (FPD) and fine particle fraction of the loaded dose (FPFLD) were determined. The FPD represented the mass of drug that was collected on stages 3-8 of the NGI.

[3] = pMDI formulation, particle fraction distribution on NGI stages; settings: stage 5 cut-off 1.36 μm, listed as micronized material
Experimental: Both samples were produced in a similar manner to sample 2 of Example 2. Sample 1 was prepared from atomization of a 3% solution of fluticasone propionate in 20% dichloromethane in methanol (3 g in 100 ml) and Sample 5 was prepared from atomization of 3% solution in acetone (3 g in 100 ml). […] The FPF values were 11.80% and 13.80% on stage 5 for samples 5 and 1 respectively compared with 6.20% for micronized material.

[4] = Cyclohaler 90 Lpm, NGI stages 3-8

## CCC(=O)O[C@]1(C(=O)SCF)[C@H](C)C[C@H]2[C@@H]3C[C@H](F)C4=CC(=O)C=C[C@]4(C)[C@@]3(F)[C@@H](O)C[C@@]21C [Sample 3, Fluticasone propionate]
[1]
  percentage fine particle fraction (% FPF) compared with micronized FP: significantly greater than that of micronized FP
[2]; Cyclohaler
  fine particle fraction for SX: 44%
  fine particle fraction for the engineered FP: 15.8%
[2]; [4]
  FPD for FP: 79 µg
  FPD for SX: 11 µg

## CCC(=O)O[C@]1(C(=O)SCF)[C@H](C)C[C@H]2[C@@H]3C[C@H](F)C4=CC(=O)C=C[C@]4(C)[C@@]3(F)[C@@H](O)C[C@@]21C [Sample 2, Fluticasone propionate]
[1]; listed as Samples 2
  percentage fine particle fraction (% FPF) compared with micronized FP: significantly greater than that of micronized FP

## CCC(=O)O[C@]1(C(=O)SCF)[C@H](C)C[C@H]2[C@@H]3C[C@H](F)C4=CC(=O)C=C[C@]4(C)[C@@]3(F)[C@@H](O)C[C@@]21C [micronized FP, Fluticasone Propionate]
[3]
  FPF on stage 5 of the NGI: 6.20%

## CCC(=O)O[C@]1(C(=O)SCF)[C@H](C)C[C@H]2[C@@H]3C[C@H](F)C4=CC(=O)C=C[C@]4(C)[C@@]3(F)[C@@H](O)C[C@@]21C [Sample 4, fluticasone propionate, reference compound]
[1]
  percentage fine particle fraction (% FPF) compared with micronized FP: significantly lower % FPF than micronized FP
